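Growth conditions: 96-well plates. Treatment: test compound, 48 hours, 5 concentrations. Analysis: linear interpolation between bracketing concentrations; unreached endpoints set to highest concentration. The concentration for 50% growth inhibition is given as GI50.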 Calls of active or inactive are those of the source. No stated cut-off is given here; in the data, active = GI50 up to about 1.1 µM and inactive = higher.
Columns and labels:
Test in all cases: inhibition of tumour cell growth, NCI panel, 48 h
SF-539 = tested on: SF-539
CCRF-CEM = tested on: CCRF-CEM
BT-549 = tested on: BT-549
A549 = tested on: A549
CAKI-1 = tested on: CAKI-1
HT-29 = tested on: HT-29
OVCAR-5 = tested on: OVCAR-5
COLO 205 = tested on: COLO 205
OVCAR-3 = tested on: OVCAR-3
KM12 = tested on: KM12
EKVX = tested on: EKVX
MDA-MB-435 = tested on: MDA-MB-435
SW-620 = tested on: SW-620
786-0 = tested on: 786-0
HL-60 = tested on: HL-60
MOLT-4 = tested on: MOLT-4
ACHN = tested on: ACHN
HCT-116 = tested on: HCT-116
LOX IMVI = tested on: LOX IMVI
TK-10 = tested on: TK-10
NCI-H522 = tested on: NCI-H522
HCT-15 = tested on: HCT-15
Hs-578T = tested on: Hs-578T
OVCAR-8 = tested on: OVCAR-8
NCI-H226 = tested on: NCI-H226
MDA-MB-231 = tested on: MDA-MB-231
Malme-3M = tested on: Malme-3M
M14 = tested on: M14
U-251 = tested on: U-251
HOP-62 = tested on: HOP-62
RXF 393 = tested on: RXF 393
DU-145 = tested on: DU-145
NCI/ADR-RES = tested on: NCI/ADR-RES
SN12C = tested on: SN12C
SF-295 = tested on: SF-295
NCI-H460 = tested on: NCI-H460
MCF7 = tested on: MCF7
SNB-19 = tested on: SNB-19
HCC 2998 = tested on: HCC 2998
HOP-92 = tested on: HOP-92
SK-MEL-2 = tested on: SK-MEL-2
UACC-257 = tested on: UACC-257
IGROV-1 = tested on: IGROV-1
A498 = tested on: A498
SK-MEL-5 = tested on: SK-MEL-5
T47D = tested on: T47D
K562 = tested on: K562
OVCAR-4 = tested on: OVCAR-4
SNB-75 = tested on: SNB-75
UACC-62 = tested on: UACC-62
SK-OV-3 = tested on: SK-OV-3
SF-268 = tested on: SF-268
NCI-H23 = tested on: NCI-H23
MDA-N = tested on: MDA-N
UO-31 = tested on: UO-31
PC-3 = tested on: PC-3
SK-MEL-28 = tested on: SK-MEL-28
SR = tested on: SR
RPMI-8226 = tested on: RPMI-8226

CCOc1ccc2nc3nc(O)nc(C)c3c(NC(C)(CO)CO)c2c1
GI50 (SF-539): > 100 µM (inactive) | GI50 (CCRF-CEM): > 100 µM (inactive) | GI50 (BT-549): > 100 µM (inactive) | GI50 (A549): > 100 µM (inactive) | GI50 (CAKI-1): > 100 µM (inactive) | GI50 (HT-29): > 100 µM (inactive) | GI50 (OVCAR-5): > 100 µM (inactive) | GI50 (COLO 205): > 100 µM (inactive) | GI50 (OVCAR-3): > 100 µM (inactive) | GI50 (KM12): > 100 µM (inactive) | GI50 (EKVX): > 100 µM (inactive) | GI50 (MDA-MB-435): > 100 µM (inactive) | GI50 (SW-620): > 100 µM (inactive) | GI50 (786-0): > 100 µM (inactive) | GI50 (HL-60): > 100 µM (inactive) | GI50 (MOLT-4): > 100 µM (inactive) | GI50 (ACHN): > 100 µM (inactive) | GI50 (HCT-116): > 100 µM (inactive) | GI50 (LOX IMVI): > 100 µM (inactive) | GI50 (TK-10): > 100 µM (inactive) | GI50 (NCI-H522): > 100 µM (inactive) | GI50 (HCT-15): > 100 µM | GI50 (Hs-578T): > 100 µM (inactive) | GI50 (OVCAR-8): > 100 µM (inactive) | GI50 (NCI-H226): > 100 µM (inactive) | GI50 (MDA-MB-231): > 100 µM (inactive) | GI50 (Malme-3M): > 100 µM (inactive) | GI50 (M14): > 100 µM (inactive) | GI50 (U-251): > 100 µM (inactive) | GI50 (HOP-62): > 100 µM (inactive) | GI50 (RXF 393): > 100 µM (inactive) | GI50 (DU-145): > 100 µM (inactive) | GI50 (NCI/ADR-RES): > 100 µM (inactive) | GI50 (SN12C): > 100 µM (inactive) | GI50 (SF-295): > 100 µM (inactive) | GI50 (NCI-H460): > 100 µM (inactive) | GI50 (MCF7): 4.08 µM (inactive) | GI50 (SNB-19): > 100 µM (inactive) | GI50 (HCC 2998): > 100 µM (inactive) | GI50 (HOP-92): > 100 µM (inactive) | GI50 (SK-MEL-2): > 100 µM (inactive) | GI50 (UACC-257): > 100 µM (inactive) | GI50 (IGROV-1): > 100 µM (inactive) | GI50 (A498): > 100 µM (inactive) | GI50 (SK-MEL-5): > 100 µM (inactive) | GI50 (T47D): > 100 µM (inactive) | GI50 (K562): > 100 µM (inactive) | GI50 (OVCAR-4): > 100 µM (inactive) | GI50 (SNB-75): > 100 µM (inactive) | GI50 (UACC-62): > 100 µM (inactive) | GI50 (SK-OV-3): > 100 µM (inactive) | GI50 (SF-268): > 100 µM (inactive) | GI50 (NCI-H23): > 100 µM (inactive) | GI50 (MDA-N): > 100 µM (inactive) | GI50 (UO-31): > 100 µM (inactive) | GI50 (PC-3): > 100 µM (inactive) | GI50 (SK-MEL-28): > 100 µM (inactive)

C/C(=N/NC(=O)c1ccccc1Nc1ccccc1C(=O)N/N=C(\C)c1ccc(C)cc1)c1ccc(C)cc1
GI50 (CCRF-CEM): 25.2 µM (inactive) | GI50 (BT-549): > 100 µM (inactive) | GI50 (A549): 46.3 µM (inactive) | GI50 (CAKI-1): > 100 µM (inactive) | GI50 (HT-29): > 100 µM (inactive) | GI50 (OVCAR-5): > 100 µM (inactive) | GI50 (COLO 205): 83.6 µM (inactive) | GI50 (OVCAR-3): 4.62 µM (inactive) | GI50 (KM12): 74.8 µM (inactive) | GI50 (EKVX): > 100 µM (inactive) | GI50 (MDA-MB-435): > 100 µM (inactive) | GI50 (SW-620): > 100 µM (inactive) | GI50 (786-0): > 100 µM (inactive) | GI50 (HL-60): > 100 µM (inactive) | GI50 (MOLT-4): 37.8 µM (inactive) | GI50 (ACHN): 23.9 µM (inactive) | GI50 (HCT-116): 53.3 µM (inactive) | GI50 (TK-10): 18.6 µM (inactive) | GI50 (HCT-15): 55 µM | GI50 (Hs-578T): > 100 µM (inactive) | GI50 (OVCAR-8): > 100 µM (inactive) | GI50 (NCI-H226): > 100 µM (inactive) | GI50 (MDA-MB-231): 79.1 µM (inactive) | GI50 (Malme-3M): 32.5 µM (inactive) | GI50 (M14): 47 µM (inactive) | GI50 (U-251): > 100 µM (inactive) | GI50 (HOP-62): 11.4 µM (inactive) | GI50 (RXF 393): 12.2 µM (inactive) | GI50 (SR): > 100 µM (inactive) | GI50 (DU-145): > 100 µM (inactive) | GI50 (NCI/ADR-RES): > 100 µM (inactive) | GI50 (SN12C): > 100 µM (inactive) | GI50 (SF-295): 22.9 µM (inactive) | GI50 (NCI-H460): 15.5 µM (inactive) | GI50 (MCF7): 14.6 µM (inactive) | GI50 (SNB-19): > 100 µM (inactive) | GI50 (HCC 2998): 10.9 µM (inactive) | GI50 (HOP-92): > 100 µM (inactive) | GI50 (SK-MEL-2): > 100 µM (inactive) | GI50 (UACC-257): > 100 µM (inactive) | GI50 (IGROV-1): > 100 µM (inactive) | GI50 (A498): > 100 µM (inactive) | GI50 (SK-MEL-5): 42.1 µM (inactive) | GI50 (T47D): > 100 µM (inactive) | GI50 (K562): 57.4 µM (inactive) | GI50 (OVCAR-4): 32.1 µM (inactive) | GI50 (RPMI-8226): > 100 µM (inactive) | GI50 (SNB-75): > 100 µM (inactive) | GI50 (UACC-62): 31.8 µM (inactive) | GI50 (SK-OV-3): > 100 µM (inactive) | GI50 (SF-268): > 100 µM (inactive) | GI50 (NCI-H23): > 100 µM (inactive) | GI50 (MDA-N): > 100 µM (inactive) | GI50 (UO-31): > 100 µM (inactive) | GI50 (PC-3): 41.7 µM (inactive) | GI50 (SK-MEL-28): > 100 µM (inactive)
